Laboratory results: US20230414612A1, “PHARMACEUTICAL COMPOSITION COMPRISING A CAP-DEPENDENT ENDONUCLEASE INHIBITOR” (TaiGen Biotechnology Co., Ltd., priority 2022, published 2023)
Values after ≈ are worked out from the molar mass of the structure shown.

Experiments:
[1] = system: influenza virus (A/PR/8/34); experiment: In vivo influenza virus infection mouse model (survival rate, body weight change); details: 5 mg/kg, oral, BALB/c mouse infected with A/PR/8/34
Procedure: (§1) The term “therapeutically effective amount” refers to the amount or dose of an active compound or salt thereof that is sufficient to prevent development of, or alleviate to some extent, one or more of the symptoms of the disorder, disease, or condition being treated. […] In addition, the effect of Compound A on influenza virus growth in lungs of BALB/c mice infected with low infectious dose 100 pfu/mouse of A/PR/8/34 at one-day post-infection was conducted. […] Therefore, based on the results of these preliminary in vivo animal studies, it is estimated that the reasonable therapeutically effective amount of the compound of Formula (I) or a pharmaceutically acceptable salt thereof for human can be about 5-200 mg, about 5-150 mg, about 5-100 mg, about 10-80 mg, about 10-40 mg, about 10-30 mg, about 10-20 mg, about 5-10 mg, about 5-20 mg, about 20-40 mg, or about 40-80 mg. For example but not limited thereto, the therapeutically effective amount of the compound of Formula (I) or a pharmaceutically acceptable salt thereof is 5 mg, 10 mg, 15 mg, 20 mg, 25 mg, 30 mg, 35 mg, 40 mg, 45 mg, 50 mg, 55 mg, 60 mg, 65 mg, 70 mg, 75 mg, 80 mg, 85 mg, 90 mg, 95 mg, 100 mg, 105 mg, 110 mg, 115 mg, 120 mg, 125 mg, 130 mg, 135 mg, 140 mg, 145 mg, 150 mg, 155 mg, 160 mg, 165 mg, 170 mg, 175 mg, 180 mg, 185 mg, 190 mg, 195 mg, or 200 mg.

[2] = system: influenza virus A/PR/8/34; experiment: Influenza virus growth in lungs of infected BALB/c mice; assay type: in vivo; details: 5 and 25 mg/kg; 100 pfu/mouse A/PR/8/34; one-day post-infection
Procedure: as §1

[3] = Dissolution assessment: solubility in FaSSIF; assay type: physicochemical
Procedure: An amount of Compound A (about 6 mg) and amorphous solid dispersion (equivalent to around 6 mg Compound A) were weighed into an 8 ml bottle, and 6 ml FaSSIF (Fasted state simulated intestinal fluid) was added (target concentration 1.0 mg/ml). Then the suspensions were stirred at thermomixer at 37° C. under 600 rpm 200 μL of suspensions were withdrawn at setting time (such as 5 min) and then centrifuged at 14000 rpm for 4 min. After that, 100 μL of supernatant was diluted with CAN five times to prevent precipitation, and was analyzed by HPLC.
FaSSIF was prepared by following steps: 1) Place 0.1024 g sodium hydroxide, 0.7518 g sodium dihydrogen phosphate anhydrous and 1.5470 g sodium chloride in a 250 mL volumetric flask, add about 225 mL water, and adjust the pH to 6.5 with 1N sodium hydroxide or 1N hydrochloric acid. Make up to volume (250 mL) with pure water. 2) Place and dissolve 0.4480 g SIF Powder Original with 100 mL of buffer (from step 1) in a 200 mL volumetric flask, add water to volume and mix well.

[4] = Stability study of Compound A and amorphous solid dispersions (total impurity level, TRS %); assay type: physicochemical
Procedure: The amorphous solid dispersions were stored at 4° C. (closed) or 40° C./75% RH (closed and open state). After 10 days or 4 weeks, samples were observed by camera, characterized by XRPD and analyzed by HPLC for purity as well as kinetic solubility. All the samples for closed storage conditions were put into clear glass vials with gaskets and screwed caps. All the samples for open storage conditions were put into clear glass vials with cap, while the month of vials was covered by aluminium foil with pinholes to avoid cross-contamination.
The sample number in TABLE 2 corresponds to the sample number in TABLE 1.

[5] = 14-day repeated-dose oral toxicity study; assay type: in vivo; details: 300 mg/kg/day
Procedure: as §1

COC(=O)OCOc1c2n(ccc1=O)N([C@H]1c3ccccc3CSc3c1ccc(F)c3F)CC1(CC1)C2=O [Compound A, [1-((11S)-7,8-difluoro(6H,11H-dibenzo[c,f]thiepin-11-yl))-4,6-dioxospiro[1,2,3,9-tetrahydropyridino[1,2-e]pyridazine-3,1′-cyclopropane]-5-yloxy]methyl methoxyformate]
antiviral efficacy on body weight change [1]: good antiviral efficacy | antiviral efficacy on survival rate [1]: good antiviral efficacy | Virus titers in lungs vs vehicle treated group [2]: significantly lower | Solubility, 5 min ([3]; FaSSIF, 37° C., 600 rpm, target concentration 1.0 mg/ml, 5 min): 4.95 µg/mL (≈ 9.16 µM) | Solubility, 15 min ([3]; FaSSIF, 37° C., 600 rpm, target concentration 1.0 mg/ml, 15 min): 4.89 µg/mL (≈ 9.05 µM) | aqueous solubility ([3]; statement in words): low aqueous solubility | 4° C. Closed for 4 wks TRS % ([4]; 4° C., closed, 4 weeks): 0.76% | 40° C./75% RH Closed for 4 wks TRS % ([4]; 40° C./75% RH, closed, 4 weeks): 0.86% | 40° C./75% RH Open for 4 wks TRS % ([4]; 40° C./75% RH, open, 4 weeks (cells without #)): 0.82% | Initial TRS % ([4]; initial, total relative substances by HPLC): 0.79% | deaths or toxic effect [5]: did not cause deaths or have toxic effect
